Data from ChEMBL document CHEMBL4308841, “Synthesis, in vitro antiproliferative activity, and kinase inhibitory effects of pyrazole-containing diarylureas and diarylamides” (Eur J Med Chem, 2018).
pIC50: −log10 of the molar value.

Experiments:
[1] = tested on: TK-10; test: Growth inhibition of human TK10 cells assessed as cell growth at 10 uM incubated for 48 hrs by sulforhodamine B assay relative to control; assay type: functional; conditions: TK-10, 48 h, read-out: Activity
[2] = tested on: MOLT-4; test: Growth inhibition of human MOLT4 cells incubated for 48 hrs by sulforhodamine B assay; assay type: functional, cell-based; conditions: MOLT-4, 48 h
[3] = tested on: A549; test: Growth inhibition of human A549/ATCC cells incubated for 48 hrs by sulforhodamine B assay; assay type: functional, cell-based; conditions: A549, 48 h
[4] = tested on: SNB-75; test: Growth inhibition of human SNB75 cells incubated for 48 hrs by sulforhodamine B assay; assay type: functional, cell-based; conditions: SNB-75, 48 h
[5] = tested on: UACC-257; test: Growth inhibition of human UACC257 cells incubated for 48 hrs by sulforhodamine B assay; assay type: functional, cell-based; conditions: UACC-257, 48 h
[6] = tested on: SK-OV-3; test: Growth inhibition of human SKOV3 cells incubated for 48 hrs by sulforhodamine B assay; assay type: functional, cell-based; conditions: SK-OV-3, 48 h
[7] = tested on: DU-145; test: Growth inhibition of human DU145 cells incubated for 48 hrs by sulforhodamine B assay; assay type: functional, cell-based; conditions: DU-145, 48 h
[8] = tested on: HCT-116; test: Growth inhibition of human HCT116 cells assessed as cell growth at 0.01 uM incubated for 48 hrs by sulforhodamine B assay relative to control; assay type: functional; conditions: HCT-116, 48 h, read-out: Activity
[9] = tested on: SNB-75; test: Growth inhibition of human SNB75 cells assessed as cell growth at 0.01 uM incubated for 48 hrs by sulforhodamine B assay relative to control; assay type: functional; conditions: SNB-75, 48 h, read-out: Activity
[10] = tested on: MDA-MB-435; test: Growth inhibition of human MDA-MB-435 cells assessed as cell growth at 0.01 uM incubated for 48 hrs by sulforhodamine B assay relative to control; assay type: functional; conditions: MDA-MB-435, 48 h, read-out: Activity
[11] = tested on: SK-MEL-5; test: Growth inhibition of human SK-MEL-5 cells assessed as cell growth at 0.01 uM incubated for 48 hrs by sulforhodamine B assay relative to control; assay type: functional; conditions: SK-MEL-5, 48 h, read-out: Activity
[12] = tested on: SK-OV-3; test: Growth inhibition of human SKOV3 cells assessed as cell growth at 0.01 uM incubated for 48 hrs by sulforhodamine B assay relative to control; assay type: functional; conditions: SK-OV-3, 48 h, read-out: Activity
[13] = tested on: A498; test: Growth inhibition of human A498 cells assessed as cell growth at 0.01 uM incubated for 48 hrs by sulforhodamine B assay relative to control; assay type: functional; conditions: A498, 48 h, read-out: Activity
[14] = tested on: DU-145; test: Growth inhibition of human DU145 cells assessed as cell growth at 0.01 uM incubated for 48 hrs by sulforhodamine B assay relative to control; assay type: functional; conditions: DU-145, 48 h, read-out: Activity
[15] = tested on: K562; test: Growth inhibition of human K562 cells assessed as cell growth at 0.1 uM incubated for 48 hrs by sulforhodamine B assay relative to control; assay type: functional; conditions: K562, 48 h, read-out: Activity
[16] = tested on: A549; test: Growth inhibition of human A549/ATCC cells assessed as cell growth at 0.1 uM incubated for 48 hrs by sulforhodamine B assay relative to control; assay type: functional; conditions: A549, 48 h, read-out: Activity
[17] = tested on: SK-MEL-28; test: Growth inhibition of human SK-MEL-28 cells assessed as cell growth at 0.1 uM incubated for 48 hrs by sulforhodamine B assay relative to control; assay type: functional; conditions: SK-MEL-28, 48 h, read-out: Activity
[18] = tested on: IGROV-1; test: Growth inhibition of human IGROV1 cells assessed as cell growth at 0.1 uM incubated for 48 hrs by sulforhodamine B assay relative to control; assay type: functional; conditions: IGROV-1, 48 h, read-out: Activity
[19] = tested on: OVCAR-3; test: Growth inhibition of human OVCAR3 cells assessed as cell growth at 0.1 uM incubated for 48 hrs by sulforhodamine B assay relative to control; assay type: functional; conditions: OVCAR-3, 48 h, read-out: Activity
[20] = tested on: NCI-H226; test: Growth inhibition of human NCI-H226 cells assessed as cell growth at 1 uM incubated for 48 hrs by sulforhodamine B assay relative to control; assay type: functional; conditions: NCI-H226, 48 h, read-out: Activity
[21] = tested on: SK-MEL-5; test: Growth inhibition of human SK-MEL-5 cells assessed as cell growth at 1 uM incubated for 48 hrs by sulforhodamine B assay relative to control; assay type: functional; conditions: SK-MEL-5, 48 h, read-out: Activity
[22] = tested on: OVCAR-8; test: Growth inhibition of human OVCAR8 cells assessed as cell growth at 1 uM incubated for 48 hrs by sulforhodamine B assay relative to control; assay type: functional; conditions: OVCAR-8, 48 h, read-out: Activity
[23] = tested on: SK-OV-3; test: Growth inhibition of human SKOV3 cells assessed as cell growth at 1 uM incubated for 48 hrs by sulforhodamine B assay relative to control; assay type: functional; conditions: SK-OV-3, 48 h, read-out: Activity
[24] = tested on: MDA-MB-231; test: Growth inhibition of human MDA-MB-231 cells assessed as cell growth at 1 uM incubated for 48 hrs by sulforhodamine B assay relative to control; assay type: functional; conditions: MDA-MB-231, 48 h, read-out: Activity
[25] = tested on: K562; test: Growth inhibition of human K562 cells assessed as cell growth at 100 uM incubated for 48 hrs by sulforhodamine B assay relative to control; assay type: functional; conditions: K562, 48 h, read-out: Activity
[26] = tested on: RPMI-8226; test: Growth inhibition of human RPMI8226 cells assessed as cell growth at 100 uM incubated for 48 hrs by sulforhodamine B assay relative to control; assay type: functional; conditions: RPMI-8226, 48 h, read-out: Activity
[27] = tested on: COLO 205; test: Growth inhibition of human COLO205 cells assessed as cell growth at 100 uM incubated for 48 hrs by sulforhodamine B assay relative to control; assay type: functional; conditions: COLO 205, 48 h, read-out: Activity
[28] = tested on: SF-268; test: Growth inhibition of human SF268 cells assessed as cell growth at 100 uM incubated for 48 hrs by sulforhodamine B assay relative to control; assay type: functional; conditions: SF-268, 48 h, read-out: Activity
[29] = tested on: SF-295; test: Growth inhibition of human SF295 cells assessed as cell growth at 100 uM incubated for 48 hrs by sulforhodamine B assay relative to control; assay type: functional; conditions: SF-295, 48 h, read-out: Activity
[30] = read-out: LC50 (the source's name)
[31] = read-out: pLC50 (the source's name) (converted)

SMILES: O=C(Nc1cccc(-n2cc(-c3ccncc3)c(-c3cc(O)cc(Cl)c3)n2)c1)c1ccc(N2CCOCC2)c(C(F)(F)F)c1
- growth at 10 µM [1]: 70.3%
- GI50 ([2]; read-out: GI50): 1.11 µM
- CC50 [2, 30]: > 100 µM
- TGI ([2]; read-out: TGI): 43.6 µM
- GI50 ([2]; read-out: pGI50 (converted)): 1.12 µM
- CC50 [2, 31]: > 100 µM
- TGI ([2]; read-out: pTGI (converted)): 4.47 µM
- pIC50 [3]: 5.79
- GI50 ([3]; read-out: GI50): 1.54 µM
- CC50 [3, 30]: > 100 µM
- TGI ([3]; read-out: TGI): 18 µM
- GI50 ([3]; read-out: pGI50 (converted)): 1.66 µM
- CC50 [3, 31]: > 100 µM
- TGI ([3]; read-out: pTGI (converted)): 18.2 µM
- GI50 ([4]; read-out: GI50): 0.772 µM
- CC50 [4, 30]: > 100 µM
- TGI ([4]; read-out: TGI): > 100 µM
- GI50 ([4]; read-out: pGI50 (converted)): 0.724 µM
- CC50 [4, 31]: > 100 µM
- TGI ([4]; read-out: pTGI (converted)): > 100 µM
- GI50 ([5]; read-out: GI50): 2.36 µM
- CC50 [5, 30]: > 100 µM
- TGI ([5]; read-out: TGI): 84 µM
- GI50 ([5]; read-out: pGI50 (converted)): 2.34 µM
- CC50 [5, 31]: > 100 µM
- TGI ([5]; read-out: pTGI (converted)): 8.51 µM
- GI50 ([6]; read-out: GI50): 95.3 µM
- CC50 [6, 30]: > 100 µM
- TGI ([6]; read-out: TGI): > 100 µM
- GI50 ([6]; read-out: pGI50 (converted)): 9.55 µM
- CC50 [6, 31]: > 100 µM
- TGI ([6]; read-out: pTGI (converted)): > 100 µM
- GI50 ([7]; read-out: GI50): 5.55 µM
- CC50 [7, 30]: > 100 µM
- TGI ([7]; read-out: TGI): > 100 µM
- GI50 ([7]; read-out: pGI50 (converted)): 5.62 µM
- CC50 [7, 31]: > 100 µM
- TGI ([7]; read-out: pTGI (converted)): > 100 µM
- growth at 0.01 µM [8]: 102%
- growth at 0.01 µM [9]: 57%
- growth at 0.01 µM [10]: 96%
- growth at 0.01 µM [11]: 98%
- growth at 0.01 µM [12]: 102%
- growth at 0.01 µM [13]: 97%
- growth at 0.01 µM [14]: 100%
- growth at 0.1 µM [15]: 100%
- growth at 0.1 µM [16]: 97%
- growth at 0.1 µM [17]: 94%
- growth at 0.1 µM [18]: 103%
- growth at 0.1 µM [19]: 113%
- growth at 1 µM [20]: 90%
- growth at 1 µM [21]: 52%
- growth at 1 µM [22]: 57%
- growth at 1 µM [23]: 95%
- growth at 1 µM [24]: 11%
- growth at 100 µM [25]: -24%
- growth at 100 µM [26]: -32%
- growth at 100 µM [27]: -17%
- growth at 100 µM [28]: 38%
- growth at 100 µM [29]: -81%
